Laboratory results reported in ChEMBL document CHEMBL1909046, “DrugMatrix in vitro pharmacology data”.

Tests used:
[1] = biological target: Sodium-dependent dopamine transporter (Homo sapiens, UniProt Q01959); assay: DRUGMATRIX: Dopamine Transporter radioligand binding (ligand: [125I] RTI-55); type: cell membranes, CHO-K1, Membrane; conditions: cho-k1; Not Active = under 50% inhibition at 10 µM
[2] = biological target: 5-hydroxytryptamine receptor 4 (Cavia porcellus, UniProt O70528); type: cell membranes, Dunkin-Hartley, Striatum, Membrane; further: in other assays of this panel Not Active means under 50% inhibition at 10 µM
D(1A) dopamine receptor = D(1A) dopamine receptor (Homo sapiens, UniProt P21728); assay: DRUGMATRIX: Dopamine D1 radioligand binding (ligand: [3H] SCH-23390); type: cell membranes, Membrane; conditions: cho; Not Active = under 50% inhibition at 10 µM
Neutrophil elastase = biological target: T1, Neutrophil elastase (Homo sapiens, UniProt P08246); type: tissue-based;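 further: inhibition of neutrophil elastase enzyme activity, measured with a p-nitroanilide-linked peptide substrate; in other assays of this panel Not Active means under 50% inhibition at 10 µM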
T1 sequence (P08246 whole entry): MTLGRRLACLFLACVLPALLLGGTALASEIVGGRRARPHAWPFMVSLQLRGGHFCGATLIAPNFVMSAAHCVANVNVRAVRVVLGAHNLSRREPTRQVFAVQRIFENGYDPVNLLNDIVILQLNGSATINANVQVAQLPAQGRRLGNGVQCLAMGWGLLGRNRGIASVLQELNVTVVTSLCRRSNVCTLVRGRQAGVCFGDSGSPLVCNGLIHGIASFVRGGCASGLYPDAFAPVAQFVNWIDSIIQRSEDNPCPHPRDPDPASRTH

Caspase-1 = biological target: T2, Caspase-1 (Homo sapiens, UniProt P29466); set-up: species or system Escherichia coli;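 further: Caspase-1 enzyme inhibition assay with a peptide substrate; in other assays of this panel Not Active means under 50% inhibition at 10 µM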
T2 sequence (P29466 whole entry): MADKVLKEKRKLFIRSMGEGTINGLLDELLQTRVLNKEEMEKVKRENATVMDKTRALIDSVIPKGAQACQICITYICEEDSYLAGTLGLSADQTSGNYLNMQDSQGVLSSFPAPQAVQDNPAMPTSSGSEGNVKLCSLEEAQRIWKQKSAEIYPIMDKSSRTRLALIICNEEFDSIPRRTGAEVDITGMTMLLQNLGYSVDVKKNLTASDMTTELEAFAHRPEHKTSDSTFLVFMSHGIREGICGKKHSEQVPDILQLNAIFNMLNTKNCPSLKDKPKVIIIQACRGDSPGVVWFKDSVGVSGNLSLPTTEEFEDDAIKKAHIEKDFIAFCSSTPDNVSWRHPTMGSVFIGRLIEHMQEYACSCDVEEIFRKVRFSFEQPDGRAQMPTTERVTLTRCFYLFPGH

[3] = DRUGMATRIX: Phosphodiesterase PDE3 enzyme inhibition (substrate: [3H]cAMP + cAMP); type: tissue-based, Homo sapiens; conditions: platelet; Not Active = under 50% inhibition at 10 µM

Sodium-dependent dopamine transporter, sequence (Q01959 whole entry): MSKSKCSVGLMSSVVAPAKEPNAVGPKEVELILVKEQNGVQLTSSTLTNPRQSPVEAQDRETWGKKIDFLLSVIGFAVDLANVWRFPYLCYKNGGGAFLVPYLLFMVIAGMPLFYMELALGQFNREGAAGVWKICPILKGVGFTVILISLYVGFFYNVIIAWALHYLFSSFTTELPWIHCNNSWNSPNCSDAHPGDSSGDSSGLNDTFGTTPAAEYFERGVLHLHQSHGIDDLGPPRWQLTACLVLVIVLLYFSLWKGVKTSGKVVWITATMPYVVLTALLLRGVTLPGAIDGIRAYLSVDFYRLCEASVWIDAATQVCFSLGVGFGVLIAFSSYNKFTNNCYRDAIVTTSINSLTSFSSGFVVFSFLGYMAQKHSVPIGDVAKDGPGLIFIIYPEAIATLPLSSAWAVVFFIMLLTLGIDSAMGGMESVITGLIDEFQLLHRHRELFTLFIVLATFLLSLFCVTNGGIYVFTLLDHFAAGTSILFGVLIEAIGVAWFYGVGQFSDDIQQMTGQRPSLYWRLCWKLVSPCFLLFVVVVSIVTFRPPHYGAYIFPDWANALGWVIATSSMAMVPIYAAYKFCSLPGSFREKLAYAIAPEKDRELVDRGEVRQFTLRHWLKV
D(1A) dopamine receptor, sequence (P21728 whole entry): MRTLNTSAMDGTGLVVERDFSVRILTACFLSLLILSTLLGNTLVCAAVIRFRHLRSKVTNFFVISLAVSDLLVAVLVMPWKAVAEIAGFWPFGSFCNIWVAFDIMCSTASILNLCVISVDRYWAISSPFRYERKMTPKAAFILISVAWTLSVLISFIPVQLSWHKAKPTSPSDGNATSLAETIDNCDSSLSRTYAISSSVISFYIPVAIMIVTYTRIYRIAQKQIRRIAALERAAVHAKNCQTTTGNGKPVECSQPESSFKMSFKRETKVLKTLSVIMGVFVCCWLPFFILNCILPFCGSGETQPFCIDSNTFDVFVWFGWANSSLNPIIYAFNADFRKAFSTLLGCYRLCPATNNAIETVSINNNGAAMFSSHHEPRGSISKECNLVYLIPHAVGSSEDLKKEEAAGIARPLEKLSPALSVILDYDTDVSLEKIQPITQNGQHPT
5-hydroxytryptamine receptor 4, sequence (O70528 whole entry): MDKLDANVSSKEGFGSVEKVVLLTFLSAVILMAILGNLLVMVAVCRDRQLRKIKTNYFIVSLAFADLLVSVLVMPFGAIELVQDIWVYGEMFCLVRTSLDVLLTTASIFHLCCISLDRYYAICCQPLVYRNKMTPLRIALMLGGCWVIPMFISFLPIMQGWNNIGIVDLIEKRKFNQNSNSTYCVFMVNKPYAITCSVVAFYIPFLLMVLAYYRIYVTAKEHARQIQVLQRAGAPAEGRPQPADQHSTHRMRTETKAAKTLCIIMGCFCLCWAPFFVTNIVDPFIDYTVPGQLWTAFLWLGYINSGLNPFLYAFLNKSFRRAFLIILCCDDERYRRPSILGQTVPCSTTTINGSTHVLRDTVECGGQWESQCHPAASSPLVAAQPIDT

CCOC(=O)C1=C(C)NC(C)=C(C(=O)OC)C1c1cccc([N+](=O)[O-])c1 (stereo not given) [NITRENDIPINE]
Not Active: IC50 [1] | IC50 [2] | IC50 (D(1A) dopamine receptor) | IC50 (Neutrophil elastase) | IC50 (Caspase-1) | IC50 [3] | Ki [3]

C#C[C@]1(OC(C)=O)CC[C@H]2[C@@H]3CCC4=CC(=O)CC[C@@H]4[C@H]3CC[C@@]21C [NORETHINDRONE ACETATE]
Not Active: IC50 [1] | IC50 [2] | IC50 (D(1A) dopamine receptor) | IC50 (Neutrophil elastase) | IC50 (Caspase-1) | IC50 [3] | Ki [3]

COc1ccc2[nH]c([S+]([O-])Cc3ncc(C)c(OC)c3C)nc2c1 (stereo not given) [OMEPRAZOLE]
Not Active: IC50 [1] | IC50 [2] | IC50 (D(1A) dopamine receptor) | IC50 (Neutrophil elastase) | IC50 (Caspase-1) | IC50 [3] | Ki [3]

Cc1nccn1CC1CCc2c(c3ccccc3n2C)C1=O (stereo not given) [ONDANSETRON]
Not Active: IC50 [1] | IC50 [2] | IC50 (D(1A) dopamine receptor) | IC50 (Neutrophil elastase) | IC50 (Caspase-1) | IC50 [3] | Ki [3]

CCn1cc(C(=O)O)c(=O)c2cc(F)c(N3CCN(C)CC3)cc21 [PEFLOXACIN]
Not Active: IC50 [1] | IC50 [2] | IC50 (D(1A) dopamine receptor) | IC50 (Neutrophil elastase) | IC50 (Caspase-1) | IC50 [3] | Ki [3]

CCCCOc1ccc(OCCCN2CCOCC2)cc1 [PRAMOXINE]
Not Active: IC50 [1] | IC50 [2] | IC50 (D(1A) dopamine receptor) | IC50 (Neutrophil elastase) | IC50 (Caspase-1) | IC50 [3] | Ki [3]

O=C(C1CCCCC1)N1CC(=O)N2CCc3ccccc3C2C1 (stereo not given) [PRAZIQUANTEL]
Not Active: IC50 [1] | IC50 [2] | IC50 (D(1A) dopamine receptor) | IC50 (Neutrophil elastase) | IC50 (Caspase-1) | IC50 [3] | Ki [3]

CCN(CC)CCOC(=O)c1ccc(N)cc1 [PROCAINE]
Not Active: IC50 [1] | IC50 [2] | IC50 (D(1A) dopamine receptor) | IC50 (Neutrophil elastase) | IC50 (Caspase-1) | IC50 [3] | Ki [3]

CCCN(CCC)C(=O)C(CCC(=O)O)NC(=O)c1ccccc1 (stereo not given) [PROGLUMIDE]
Not Active: IC50 [1] | IC50 [2] | IC50 (D(1A) dopamine receptor) | IC50 (Neutrophil elastase) | IC50 (Caspase-1) | IC50 [3] | Ki [3]

NC(=O)c1cnccn1 [PYRAZINAMIDE]
Not Active: IC50 [1] | IC50 [2] | IC50 (D(1A) dopamine receptor) | IC50 (Neutrophil elastase) | IC50 (Caspase-1) | IC50 [3] | Ki [3]

OC(CCN1CCCCC1)(c1ccccc1)C1CCCCC1 (stereo not given) [TRIHEXYPHENIDYL]
Not Active: IC50 [1] | IC50 [2] | IC50 (D(1A) dopamine receptor) | IC50 (Neutrophil elastase) | IC50 (Caspase-1) | IC50 [3] | Ki [3]

Cc1cc2cc3c(C)cc(=O)oc3c(C)c2o1 [TRIOXSALEN]
Not Active: IC50 [1] | IC50 [2] | IC50 (D(1A) dopamine receptor) | IC50 (Neutrophil elastase) | IC50 (Caspase-1) | IC50 [3] | Ki [3]

CCCC(CCC)C(=O)O [VALPROIC ACID]
Not Active: IC50 [1] | IC50 [2] | IC50 (D(1A) dopamine receptor) | IC50 (Neutrophil elastase) | IC50 (Caspase-1) | IC50 [3] | Ki [3]

CCC1=C[C@@H]2CN(C1)Cc1c([nH]c3ccccc13)[C@@](C(=O)OC)(c1cc3c(cc1OC)N(C)[C@H]1[C@@](O)(C(=O)OC)[C@H](OC(C)=O)[C@]4(CC)C=CCN5CC[C@]31[C@@H]54)C2 [VINORELBINE]
Not Active: IC50 [1] | IC50 [2] | IC50 (D(1A) dopamine receptor) | IC50 (Neutrophil elastase) | IC50 (Caspase-1) | IC50 [3] | Ki [3]

CADMIUM DICHLORIDE
Not Active: IC50 [1] | Ki [1] | IC50 [2] | Ki [2] | IC50 (D(1A) dopamine receptor) | Ki (D(1A) dopamine receptor) | IC50 (Neutrophil elastase) | Ki (Neutrophil elastase) | IC50 (Caspase-1) | Ki (Caspase-1) | IC50 [3] | Ki [3]
